The test system of assay [1] is amphetamine-induced hypermotility in mice. The assay can be described thus: Antagonism of amphetamine-induced hypermotility in mice (Test 1). The note with it: Mus musculus, sc, 1.5 h, test compound s.c., d-amphetamine 2 mg/kg i.p., locomotor activity 90 min, dose reducing motility to midpoint between amphetamine and saline controls. It is filed as in vivo. As for the experimental part:
Antagonism of amphetamine-induced hypermotility in mice
A low dose (2 mg/kg) of d-amphetamine administered to mice induced pronounced locomotor activity.
Female NMRI-mice, weighing about 25 g are divided into groups of 4 animals and placed in macrolon cages. The cages are placed on recording arenas in nine sound attenuated boxes with constant light and ventilation. After a familiarization period of 90 minutes the mice are brought up from the cages and treated in the following way; one control group receives saline i.p., one control group receives d-amphetamine sulphate, 2 mg/kg i.p. and test animals are treated s.c. with three different doses of the test compound and immediately thereafter with d-amphetamine 2 mg/kg i.p. Immediately after the administration the macrolon cages with the mice are put back into the test boxes and a computerized equipment records the locomotor activity in the cages for 90 minutes.
For each test compound 4 cages are treated with saline, 4 cages with only d-amphetamine and 6 cages/dose test compound+d-amphetamine. This is the total of three different experiments.
For each treatment group the mean number of counts during 90 minutes following the administration is calculated.
The ED50 -value (mg/kg) is calculated from the dose-response curve by means of linear regression. […]

Another assay has as its target T1, 5HT2-receptors (Rattus norvegicus, UniProt P14842).
T1 construct: from tissue; host or cells: brain membranes
As to the kind of experiment: Affinity to 5HT2-receptors, 3H-ketanserine ligand (Test 3). The format is binding. The note with it: 3H-ketanserine as ligand. As for the experimental part: Affinity to 5HT2 -receptors
The binding assay is carried out essentially as described by Leysen et al., (Mol. Pharmacol. 21, 301-14, 1982) using ^3 H-ketanserine as ligand.

Another assay addresses T2, D2-receptors (Rattus norvegicus, UniProt P61169).
T2 construct: from tissue; host or cells: brain membranes
The assay can be described thus: Affinity to D2-receptors, 3H-spiroperidol ligand (Test 2). It is filed as binding. The note with it: 3H-spiroperidol as ligand. How it is done:
Affinity to D2 -receptors
The binding assay is carried out essentially as described by Leysen et al., (Mol. Pharmacol. 21, 301-14, 1982) using ^3 H-spiroperidol as ligand.

A further assay has as its system 5-HT2 binding site. The following applies: background statement on known drugs; cited from earlier work.

The values below come from patent US4937245A, “Bisphenylalkylpiperazine derivatives, a method of their preparation and a pharmaceutical preparation” (priority 1987, dated 1990).

T2 sequence (P61169 whole entry): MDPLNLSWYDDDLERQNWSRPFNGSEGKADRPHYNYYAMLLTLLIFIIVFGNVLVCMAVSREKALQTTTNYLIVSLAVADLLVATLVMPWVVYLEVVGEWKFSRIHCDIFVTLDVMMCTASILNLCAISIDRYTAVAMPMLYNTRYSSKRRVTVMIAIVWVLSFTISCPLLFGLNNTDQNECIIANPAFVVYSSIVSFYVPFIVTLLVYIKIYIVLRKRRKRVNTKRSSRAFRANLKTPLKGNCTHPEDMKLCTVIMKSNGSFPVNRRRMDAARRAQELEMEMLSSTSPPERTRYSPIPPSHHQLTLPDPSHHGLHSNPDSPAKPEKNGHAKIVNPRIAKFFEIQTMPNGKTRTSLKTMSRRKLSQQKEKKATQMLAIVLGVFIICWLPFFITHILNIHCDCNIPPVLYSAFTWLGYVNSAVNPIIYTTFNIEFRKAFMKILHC
T1 sequence (P14842 whole entry): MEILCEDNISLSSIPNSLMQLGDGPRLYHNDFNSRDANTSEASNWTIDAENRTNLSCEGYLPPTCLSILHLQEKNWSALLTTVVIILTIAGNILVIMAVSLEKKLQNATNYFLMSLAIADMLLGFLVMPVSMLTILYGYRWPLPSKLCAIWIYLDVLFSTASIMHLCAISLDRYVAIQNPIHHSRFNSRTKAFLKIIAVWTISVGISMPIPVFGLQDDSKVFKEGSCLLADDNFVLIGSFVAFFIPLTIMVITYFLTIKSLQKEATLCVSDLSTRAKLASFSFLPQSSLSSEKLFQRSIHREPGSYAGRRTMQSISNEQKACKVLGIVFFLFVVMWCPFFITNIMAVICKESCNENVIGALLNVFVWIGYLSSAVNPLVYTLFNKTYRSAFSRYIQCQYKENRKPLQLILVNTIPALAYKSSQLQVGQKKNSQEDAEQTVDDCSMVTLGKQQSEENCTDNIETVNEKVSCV

Consider `NC(=O)c1cccnc1N1CCN(CCCC(c2ccc(F)cc2)c2ccc(F)cc2)CC1` [1:6, 4-[4,4-bis(p-fluorophenyl)butyl]-1-(3-carbamoyl-2-pyridyl)piperazine], for which, in assay [1], it took a dose of 0.3 mg/kg to reach the 50% effect level (ED50). For the same molecule, the values for the Ki at 5HT2-receptors and at D2-receptors were 2.1 nM and 30 nM, respectively.

For `Fc1ccc(C(CCCN2CCCN(c3ccccn3)CC2)c2ccc(F)cc2)cc1` [1:15, 4-[4,4-bis(p-fluorophenyl)butyl]-1-(2-pyridyl)-(1,4-diaza-cycloheptane)], the values for the Ki at 5HT2-receptors and on D2-receptors were 1.3 nM and 25 nM, respectively.

In assay [1], `Fc1ccc(C(CCCN2CCN(c3ccccn3)CC2)c2ccc(F)cc2)cc1` [3:1, 4-[4,4-bis(p-fluorophenyl)butyl]-1-(2-pyridyl)-piperazine] displayed an ED50 of 0.1 mg/kg. In addition, the Ki stood at 5.8 nM on 5HT2-receptors and 60 nM at D2-receptors.

Take `Cc1nc2sccn2c(=O)c1CCN1CCC(=C(c2ccc(F)cc2)c2ccc(F)cc2)CC1` [ritanserine]: the “5HT2 blocking potency / binding site preference” value with 5-HT2 binding site is given as “labels preferentially the 5-HT2 binding site”.

A word on the ED50: it is the dose at which the effect has come halfway, by size or by number of responders. Low values mean an effect at a small dose, high ones a need for a large dose. Usually Ki stands for a measure of affinity in units of concentration, obtained from inhibition or displacement. Lower therefore signals higher affinity.
